What was measured:
ΔF508-CFTR [1] = target: T1, ΔF508-CFTR (Homo sapiens, UniProt P13569, DEL508-508); assay: hBE equivalent current (Ieq) assay; assay type: cell-based; conditions: compound at 10 uM and VX-809 at 1 uM; primary hBE cells homozygous ΔF508; 24 hours treatment
T1 construct: Primary lung epithelial cells homozygous for the Cystic Fibrosis-causing ΔF508 mutation; endogenous in cells; host or cells: primary human bronchial (lung) epithelial cells homozygous for ΔF508, differentiated at air-liquid interface
T1 sequence (P13569 with tags, fused parts or gaps DEL508-508): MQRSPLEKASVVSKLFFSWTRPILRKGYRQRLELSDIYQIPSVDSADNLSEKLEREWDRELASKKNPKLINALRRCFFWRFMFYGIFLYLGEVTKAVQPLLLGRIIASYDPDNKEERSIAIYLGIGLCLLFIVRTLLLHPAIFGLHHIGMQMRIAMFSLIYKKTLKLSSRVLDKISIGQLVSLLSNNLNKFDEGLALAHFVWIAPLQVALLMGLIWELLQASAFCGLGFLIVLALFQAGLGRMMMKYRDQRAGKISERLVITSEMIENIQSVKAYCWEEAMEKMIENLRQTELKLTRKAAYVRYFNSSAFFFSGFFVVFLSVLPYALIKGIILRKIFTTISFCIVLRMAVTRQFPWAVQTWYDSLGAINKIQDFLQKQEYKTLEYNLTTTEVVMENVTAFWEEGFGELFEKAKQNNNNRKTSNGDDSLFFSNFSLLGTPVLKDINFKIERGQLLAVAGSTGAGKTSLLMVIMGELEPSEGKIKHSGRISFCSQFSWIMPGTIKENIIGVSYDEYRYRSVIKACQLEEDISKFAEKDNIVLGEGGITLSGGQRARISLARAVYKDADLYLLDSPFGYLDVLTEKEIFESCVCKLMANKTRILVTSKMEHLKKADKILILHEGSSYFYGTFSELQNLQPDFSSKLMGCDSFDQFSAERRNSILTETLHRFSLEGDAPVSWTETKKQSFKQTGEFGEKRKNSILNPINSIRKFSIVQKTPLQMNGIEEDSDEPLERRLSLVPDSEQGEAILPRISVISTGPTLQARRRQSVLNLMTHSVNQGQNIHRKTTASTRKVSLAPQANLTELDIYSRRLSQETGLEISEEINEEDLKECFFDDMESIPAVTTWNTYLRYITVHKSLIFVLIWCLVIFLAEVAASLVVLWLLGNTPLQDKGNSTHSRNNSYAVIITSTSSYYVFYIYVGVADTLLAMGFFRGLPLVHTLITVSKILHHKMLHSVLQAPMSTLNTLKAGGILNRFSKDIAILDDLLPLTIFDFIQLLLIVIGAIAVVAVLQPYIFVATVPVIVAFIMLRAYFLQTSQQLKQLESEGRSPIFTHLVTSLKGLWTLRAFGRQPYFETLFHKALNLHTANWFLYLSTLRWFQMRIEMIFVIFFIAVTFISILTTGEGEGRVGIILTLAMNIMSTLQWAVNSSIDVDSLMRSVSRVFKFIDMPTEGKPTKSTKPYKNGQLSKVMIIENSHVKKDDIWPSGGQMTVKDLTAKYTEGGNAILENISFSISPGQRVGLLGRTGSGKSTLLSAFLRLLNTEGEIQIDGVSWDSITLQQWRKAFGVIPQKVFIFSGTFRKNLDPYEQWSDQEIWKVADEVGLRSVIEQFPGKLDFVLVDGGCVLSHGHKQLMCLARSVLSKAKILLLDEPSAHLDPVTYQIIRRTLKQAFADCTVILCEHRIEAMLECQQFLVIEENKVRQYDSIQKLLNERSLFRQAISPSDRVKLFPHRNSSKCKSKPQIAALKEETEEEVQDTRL
Method: Primary lung epithelial cells homozygous for the Cystic Fibrosis-causing ΔF508 mutation were differentiated for a minimum of 4 weeks in an air-liquid interface on Costar 24 well HTS filter plates prior to the equivalent current (Ieq) measurements. Cells were apically mucus-washed for 30 minutes 24h prior to treatment with compounds. The basolateral media was removed and replaced with media containing the compound of interest diluted to its final concentration from DMSO stocks. Treated cells were incubated at 37° C. and 5% CO2 for 24 hours. At the end of the treatment period, the media was changed to the Ieq experimental solution for 30 minutes before the experiment and plates are maintained in a CO2-free incubator during this period. The plates containing the cells were then placed in pre-warmed heating blocks at 36° C.±0.5 for 15 minutes before measurements are taken. The transepithelial voltage (VT) and conductance (GT) were measured using a custom 24 channel current clamp (TECC-24) with 24 well electrode manifold. The Ieq assay measurements were made following additions with standardized time periods: • 1. The baseline VT and GT values were measured for approximately 20 minutes. • 2. Benzamil was added to block ENaC for 15 minutes. • 3. Forskolin plus VX-770 were added to maximally activate ΔF508-CFTR for 27 minutes. • 4. Bumetanide was added to inhibit the NaK2Cl cotransporter and shut-off secretion of chloride.
The activity data captured was the area under the curve (AUC) for the traces of the equivalent chloride current. The AUC was collected from the time of the forskolin/VX-770 addition until the inhibition by bumetanide addition. Correction in response to compound treatment was scored as the increase in the AUC for compound-treated samples over that of vehicle-treated samples. (** indicates activity ≥200% of VX-809 (1 uM) with compound at 10 uM and VX-809 at 1 uM; * indicates activity 100-200% of VX-809 (1 uM) with compound at 10 uM and VX-809 at 1 uM. ^##indicates activity ≥200% of VX-809 (3 uM) with compound at 10 uM and VX-809 at 3 uM; ^#indicates activity 100-200% of VX-809 (3 uM) with compound at 10 uM and VX-809 at 3 uM

ΔF508-CFTR [2] = target: T1, ΔF508-CFTR; assay: Ussing measurements; assay type: cell-based; conditions: compound at 10 uM and VX-809 at 3 uM; primary hBE cells homozygous ΔF508; 24 hours treatment
Method: As discussed above, Ussing measurements are used to measure CFTR activity. In this method, primary lung epithelial cells (hBEs) homozygous for the Cystic Fibrosis-causing ΔF508 mutation are differentiated for a minimum of 4 weeks in an air-liquid interface on SnapWell filter plates prior to the Ussing measurements. Cells are apically mucus-washed for 30 minutes prior to treatment with compounds. The basolateral media is removed and replaced with media containing the compound of interest diluted to its final concentration from DMSO stocks. Treated cells are incubated at 37° C. and 5% CO2 for 24 hours. At the end of the treatment period, the cells on filters are transferred to the Ussing chamber and equilibrated for 30 minutes. The short-circuit current is measured in voltage clamp-mode (Vhold=0 mV), and the entire assay is conducted at a temperature of 36° C. −36.5° C. Once the voltages stabilized, the chambers are clamped, and data is recorded by pulse readings every 5 seconds. Following baseline current stabilization, the following additions can be applied and the changes in current and resistance of the cells can be monitored: • 1. Benzamil to the apical chamber to inhibit ENaC sodium channel. • 2. Forskolin to both chambers to activate ΔF508-CFTR by phosphorylation. • 3. Genistein to both chambers to potentiate ΔF508-CFTR channel opening. • 4. CFTRinh-172 to the apical chamber to inhibit ΔF508-CFTR Cl-conductance.
The inhibitable current (that current that is blocked by CFTRinh-172) is measured as the specific activity of the ΔF508-CFTR channel, and increases in response to compound in this activity over that observed in vehicle-treated samples are identified as the correction of ΔF508-CFTR function imparted by the compound tested.

O=C(NCC1CCCO1)c1ncc(-c2ccccc2)s1 (stereo not drawn) [Example 1, 5-phenyl-N-((tetrahydrofuran-2-yl)methyl)thiazole-2-carboxamide]
leq (AUC of equivalent chloride current, activity relative to VX-809) (ΔF508-CFTR [1]): ** (activity ≥200% of VX-809 (1 uM) with compound at 10 uM and VX-809 at 1 uM)

COCCNC(=O)c1ncc(-c2ccccc2)s1 [Example 2, N-(2-methoxyethyl)-5-phenylthiazole-2-carboxamide]
leq (AUC of equivalent chloride current, activity relative to VX-809) (ΔF508-CFTR [1]): ** (activity ≥200% of VX-809 (1 uM) with compound at 10 uM and VX-809 at 1 uM)

O=C(NCCN1CCOCC1)c1ncc(-c2ccccc2)s1 [Example 3, N-(2-morpholinoethyl)-5-phenylthiazole-2-carboxamide]
leq (AUC of equivalent chloride current, activity relative to VX-809) (ΔF508-CFTR [1]): ** (activity ≥200% of VX-809 (1 uM) with compound at 10 uM and VX-809 at 1 uM)

O=C(NCCCn1ccnc1)c1ncc(-c2ccccc2)s1 [Example 4, N-(3-(1H-imidazol-1-yl)propyl)-5-phenylthiazole-2-carboxamide]
leq (AUC of equivalent chloride current, activity relative to VX-809) (ΔF508-CFTR [1]): ** (activity ≥200% of VX-809 (1 uM) with compound at 10 uM and VX-809 at 1 uM)

Cn1nccc1CCCNC(=O)c1ncc(-c2ccccc2)s1 [Example 5, N-(3-(1-methyl-1H-pyrazol-5-yl)propyl)-5-phenylthiazole-2-carboxamide]
leq (AUC of equivalent chloride current, activity relative to VX-809) (ΔF508-CFTR [1]): * (activity 100-200% of VX-809 (1 uM) with compound at 10 uM and VX-809 at 1 uM)

O=C(NCCc1nnc(CO)s1)c1ncc(-c2ccccc2)s1 [Example 6, N-(2-(5-(hydroxymethyl)-1,3,4-thiadiazol-2-yl)ethyl)-5-phenylthiazole-2-carboxamide]
leq (AUC of equivalent chloride current, activity relative to VX-809) (ΔF508-CFTR [1]): ** (activity ≥200% of VX-809 (1 uM) with compound at 10 uM and VX-809 at 1 uM) | Ussing (CFTRinh-172 inhibitable current, activity relative to VX-809) (ΔF508-CFTR [2]): ## (activity ≥200% of VX-809 (3 uM) with compound at 10 uM and VX-809 at 3 uM)

O=C(NCCc1nnc(CO)o1)c1ncc(-c2ccccc2)s1 [Example 7, N-(2-(5-(hydroxymethyl)-1,3,4-oxadiazol-2-yl)ethyl)-5-phenylthiazole-2-carboxamide]
leq (AUC of equivalent chloride current, activity relative to VX-809) (ΔF508-CFTR [1]): ** (activity ≥200% of VX-809 (1 uM) with compound at 10 uM and VX-809 at 1 uM) | Ussing (CFTRinh-172 inhibitable current, activity relative to VX-809) (ΔF508-CFTR [2]): ## (activity ≥200% of VX-809 (3 uM) with compound at 10 uM and VX-809 at 3 uM)

Cc1c(CO)nnn1CCNC(=O)c1ncc(-c2ccccc2)s1 [Example 8, N-(2-(4-(hydroxymethyl)-5-methyl-1H-1,2,3-triazol-1-yl)ethyl)-5-phenylthiazole-2-carboxamide]
leq (AUC of equivalent chloride current, activity relative to VX-809) (ΔF508-CFTR [1]): ** (activity ≥200% of VX-809 (1 uM) with compound at 10 uM and VX-809 at 1 uM) | Ussing (CFTRinh-172 inhibitable current, activity relative to VX-809) (ΔF508-CFTR [2]): ## (activity ≥200% of VX-809 (3 uM) with compound at 10 uM and VX-809 at 3 uM)

Cc1nnn(CCNC(=O)c2ncc(-c3ccccc3)s2)c1CO [Example 9, N-(2-(5-(hydroxymethyl)-4-methyl-1H-1,2,3-triazol-1-yl)ethyl)-5-phenylthiazole-2-carboxamide]
leq (AUC of equivalent chloride current, activity relative to VX-809) (ΔF508-CFTR [1]): ** (activity ≥200% of VX-809 (1 uM) with compound at 10 uM and VX-809 at 1 uM)

O=C(NC1CC(c2nnc(CO)o2)C1)c1ncc(-c2ccccc2)s1 (stereo not drawn) [Example 10, N-cis-3-(5-(hydroxymethyl)-1,3,4-oxadiazol-2-yl)cyclobutyl)-5-phenylthiazole-2-carboxamide]
Ussing (CFTRinh-172 inhibitable current, activity relative to VX-809) (ΔF508-CFTR [2]): ## (activity ≥200% of VX-809 (3 uM) with compound at 10 uM and VX-809 at 3 uM)

C[C@@H](O)c1nnc(C2CC(NC(=O)c3ncc(-c4ccccc4)s3)C2)o1 (stereo partly drawn) [Example 11]
Ussing (CFTRinh-172 inhibitable current, activity relative to VX-809) (ΔF508-CFTR [2]): ## (activity ≥200% of VX-809 (3 uM) with compound at 10 uM and VX-809 at 3 uM)

O=C(NC1CC(n2cc(CO)nn2)C1)c1ncc(-c2ccccc2)s1 (stereo not drawn) [Example 12, N-trans-3-(5-(hydroxymethyl)-1H-1,2,3-triazol-1-yl)cyclobutyl)-5-phenylthiazole-2-carboxamide]
Ussing (CFTRinh-172 inhibitable current, activity relative to VX-809) (ΔF508-CFTR [2]): ## (activity ≥200% of VX-809 (3 uM) with compound at 10 uM and VX-809 at 3 uM)
